Data from US11771738B2 (Zoetis Services LLC, priority 2018, dated 2023).
Read-outs that look alike come from different tables or passages of the source. Marks after values point to notes of the source that are not given here.

What was measured:
Type in all cases: cell-based
[1] = tested on: third stage larvae of Haemonchus contortus; assay: Haemonchus contortus, Larvae Stage 3 (HcL3) In Vitro Assay; settings: for minimal effective concentration: Haemonchus contortus, 96 h; for HcL3 MED: Minimum Effective Dose, H. contortus third stage larvae, approximately 96 hours
[2] = tested on: microfilariae of Dirofilaria immitis; assay: Dirofilaria immitis, Microfilaria (DiMf) In Vitro Assay; settings: for minimal effective concentration: Dirofilaria immitis, 72 h, read-out: DiMf MED, Minimum Effective Dose, D. immitis microfilariae motility, in vitro
D. immitis L4 larvae = assay: Dirofilaria immitis, L4 Stage (DiL4) In Vitro Assay; settings: for minimal effective concentration: Dirofilaria immitis, 72 h, read-out: DiL4 MED, Minimum Effective Dose, D. immitis L4 larvae motility, in vitro; for DiMf/DiL4: larval stage selectivity, ratio of DiMf MED to DiL4 MED; for DiL4 MED: Minimum Effective Dose, D. immitis L4 larvae motility, in vitro
[3] = read-out: HcL3 MED (symbol after Ex#), approximately 96 hours incubation, multiple-resistant field isolate
[4] = read-out: HcL3 MED, Minimum Effective Dose, H. contortus third stage larvae, approximately 96 hours
[5] = read-out: HcL3 MED, approximately 96 hours incubation, multiple-resistant field isolate

| Structure (SMILES) | minimal effective concentration [1, 3] [µM] | minimal effective concentration [1, 4] [µM] | minimal effective concentration [1, 5] [µM] | minimal effective concentration [2] [µM] | minimal effective concentration (D. immitis L4 larvae) [µM] | DiMf/DiL4 (D. immitis L4 larvae) | HcL3 MED [1] [µM] | HcL3 MED (symbol after Ex#) ([1]; approximately 96 hours incubation, multiple-resistant field isolate) | DiMf MED ([2]; Minimum Effective Dose, D. immitis microfilariae motility, in vitro) [nM] | DiL4 MED (D. immitis L4 larvae) [nM] | HcL3 MED ([1]; listed as (4-141)) [µM] | DiL4 MED (D. immitis L4 larvae; listed as (4-141)) [nM] | DiMf/DiL4 (D. immitis L4 larvae; listed as (4-141)) |
| --- | --- | --- | --- | --- | --- | --- | --- | --- | --- | --- | --- | --- | --- |
| CC(C)C[C@H]1C(=O)O[C@H](Cc2ccc(Cc3occc3C#N)cc2)C(=O)N(C)[C@@H](CC(C)C)C(=O)O[C@H](C)C(=O)N(C)[C@@H](CC(C)C)C(=O)O[C@H](Cc2ccccc2)C(=O)N(C)[C@@H](CC(C)C)C(=O)O[C@H](C)C(=O)N1C [Example 4-40, 2-(4-(((2R,5S,8R,11S,14R,17S,20R,23S)-14-benzyl-5,11,17,23-tetraisobutyl-4,8,10,16,20,22-hexamethyl-3,6,9,12,15,18,21,24-octaoxo-1,7,13,19-tetraoxa-4,10,16,22-tetraazacyclotetracosan-2-yl)methyl)benzyl)furan-3-carbonitrile] | < 1 | 0.5 | ≤ 1 | 0.0005 | 0.0002 | 2.5 |  |  |  |  |  |  |  |
| CC(C)C[C@H]1C(=O)O[C@H](Cc2ccc(Cc3ccsc3)cc2)C(=O)N(C)[C@@H](CC(C)C)C(=O)O[C@H](C)C(=O)N(C)[C@@H](CC(C)C)C(=O)O[C@H](Cc2ccccc2)C(=O)N(C)[C@@H](CC(C)C)C(=O)O[C@H](C)C(=O)N1C [Example 4-50, (3S,6R,9S,12R,15S,18R,21S,24R)-6-benzyl-3,9,15,21-tetraisobutyl-4,10,12,16,22,24-hexamethyl-18-(4-(thiophen-3-ylmethyl)benzyl)-1,7,13,19-tetraoxa-4,10,16,22-tetraazacyclotetracosan-2,5,8,11,14,17,20,23-octaone] | 1 to 3.3 | 1.8 |  | 0.01 | 0.001 | 10 |  |  |  |  |  |  |  |
| CC(C)C[C@H]1C(=O)O[C@H](Cc2ccc(Cc3ccnn3C)cc2)C(=O)N(C)[C@@H](CC(C)C)C(=O)O[C@H](C)C(=O)N(C)[C@@H](CC(C)C)C(=O)O[C@H](Cc2ccccc2)C(=O)N(C)[C@@H](CC(C)C)C(=O)O[C@H](C)C(=O)N1C [Example 4-63, (3S,6R,9S,12R,15S,18R,21S,24R)-6-benzyl-3,9,15,21-tetraisobutyl-4,10,12,16,22,24-hexamethyl-18-(4-((1-methyl-1H-pyrazol-5-yl)methyl)benzyl)-1,7,13,19-tetraoxa-4,10,16,22-tetraazacyclotetracosan-2,5,8,11,14,17,20,23-octaone] | < 1 | 1 | ≤ 1 | 0.001 | 0.001 | 1 |  |  |  |  |  |  |  |
| CC(C)C[C@H]1C(=O)O[C@H](Cc2ccc(Cc3sccc3Cl)cc2)C(=O)N(C)[C@@H](CC(C)C)C(=O)O[C@H](C)C(=O)N(C)[C@@H](CC(C)C)C(=O)O[C@H](Cc2ccccc2)C(=O)N(C)[C@@H](CC(C)C)C(=O)O[C@H](C)C(=O)N1C [Example 4-75, (3S,6R,9S,12R,15S,18R,21S,24R)-6-benzyl-18-(4-((3-chlorothiophen-2-yl)methyl)benzyl)-3,9,15,21-tetraisobutyl-4,10,12,16,22,24-hexamethyl-1,7,13,19-tetraoxa-4,10,16,22-tetraazacyclotetracosan-2,5,8,11,14,17,20,23-octaone] | < 1 | 1 | ≤ 1 | 0.01 | 0.0005 | 20 |  |  |  |  |  |  |  |
| COc1ccsc1Cc1ccc(C[C@H]2OC(=O)[C@H](CC(C)C)N(C)C(=O)[C@@H](C)OC(=O)[C@H](CC(C)C)N(C)C(=O)[C@@H](Cc3ccccc3)OC(=O)[C@H](CC(C)C)N(C)C(=O)[C@@H](C)OC(=O)[C@H](CC(C)C)N(C)C2=O)cc1 [Example 4-105, (3S,6R,9S,12R,15S,18R,21S,24R)-6-benzyl-3,9,15,21-tetraisobutyl-18-(4-((3-methoxythiophen-2-yl)methyl)benzyl)-4,10,12,16,22,24-hexamethyl-1,7,13,19-tetraoxa-4,10,16,22-tetraazacyclotetracosan-2,5,8,11,14,17,20,23-octaone] | < 1 | 0.3 | ≤ 1 | 0.005 | 0.0002 | 25 |  |  |  |  |  |  |  |
| CC(C)C[C@H]1C(=O)O[C@H](Cc2ccc(Cc3scnc3Cl)cc2)C(=O)N(C)[C@@H](CC(C)C)C(=O)O[C@H](C)C(=O)N(C)[C@@H](CC(C)C)C(=O)O[C@H](Cc2ccccc2)C(=O)N(C)[C@@H](CC(C)C)C(=O)O[C@H](C)C(=O)N1C [Example 4-107, (3S,6R,9S,12R,15S,18R,21S,24R)-6-benzyl-18-(4-((4-chlorothiazol-5-yl)methyl)benzyl)-3,9,15,21-tetraisobutyl-4,10,12,16,22,24-hexamethyl-1,7,13,19-tetraoxa-4,10,16,22-tetraazacyclotetracosan-2,5,8,11,14,17,20,23-octaone] | < 1 | 0.3 | ≤ 1 | 0.003 | 0.0002 | 15 |  |  |  |  |  |  |  |
| Cc1noc(C)c1Cc1ccc(C[C@H]2OC(=O)[C@H](CC(C)C)N(C)C(=O)[C@@H](C)OC(=O)[C@H](CC(C)C)N(C)C(=O)[C@@H](Cc3ccccc3)OC(=O)[C@H](CC(C)C)N(C)C(=O)[C@@H](C)OC(=O)[C@H](CC(C)C)N(C)C2=O)cc1 [Example 4-109, (3S,6R,9S,12R,15S,18R,21S,24R)-6-benzyl-18-(4-((3,5-dimethylisoxazol-4-yl)methyl)benzyl)-3,9,15,21-tetraisobutyl-4,10,12,16,22,24-hexamethyl-1,7,13,19-tetraoxa-4,10,16,22-tetraazacyclotetracosan-2,5,8,11,14,17,20,23-octaone] | < 1 | 1 | ≤ 1 | 0.001 | 0.0004 | 2.5 |  |  |  |  |  |  |  |
| COc1ccc(Cc2ccc(C[C@H]3OC(=O)[C@H](CC(C)C)N(C)C(=O)[C@@H](C)OC(=O)[C@H](CC(C)C)N(C)C(=O)[C@@H](Cc4ccccc4)OC(=O)[C@H](CC(C)C)N(C)C(=O)[C@@H](C)OC(=O)[C@H](CC(C)C)N(C)C3=O)cc2)c(C)n1 [Example 4-118, (3S,6R,9S,12R,15S,18R,21S,24R)-6-benzyl-3,9,15,21-tetraisobutyl-18-(4-((6-methoxy-2-methylpyridin-3-yl)methyl)benzyl)-4,10,12,16,22,24-hexamethyl-1,7,13,19-tetraoxa-4,10,16,22-tetraazacyclotetracosan-2,5,8,11,14,17,20,23-octaone] | < 1 | 0.3 | ≤ 1 | 0.001 | 0.0001 | 10 |  |  |  |  |  |  |  |
| COc1cc(C)c(Cc2ccc(C[C@H]3OC(=O)[C@H](CC(C)C)N(C)C(=O)[C@@H](C)OC(=O)[C@H](CC(C)C)N(C)C(=O)[C@@H](Cc4ccccc4)OC(=O)[C@H](CC(C)C)N(C)C(=O)[C@@H](C)OC(=O)[C@H](CC(C)C)N(C)C3=O)cc2)cn1 [Example 4-126, (3S,6R,9S,12R,15S,18R,21S,24R)-6-benzyl-3,9,15,21-tetraisobutyl-18-(4-((6-methoxy-4-methylpyridin-3-yl)methyl)benzyl)-4,10,12,16,22,24-hexamethyl-1,7,13,19-tetraoxa-4,10,16,22-tetraazacyclotetracosan-2,5,8,11,14,17,20,23-octaone] | 1 to 3.3 | 1.8 |  | 0.003 | 0.0002 | 15 |  |  |  |  |  |  |  |
| Cc1ncccc1Cc1ccc(C[C@H]2OC(=O)[C@H](CC(C)C)N(C)C(=O)[C@@H](C)OC(=O)[C@H](CC(C)C)N(C)C(=O)[C@@H](Cc3ccccc3)OC(=O)[C@H](CC(C)C)N(C)C(=O)[C@@H](C)OC(=O)[C@H](CC(C)C)N(C)C2=O)cc1 [Example 4-139] |  |  |  |  |  | 2.5 | 1 | 4-139* (Examples with an asterisk (*) have HcL3 MED values≤1 μM) | 1 | 0.4 |  |  |  |
| Cc1cnsc1Cc1ccc(C[C@H]2OC(=O)[C@H](CC(C)C)N(C)C(=O)[C@@H](C)OC(=O)[C@H](CC(C)C)N(C)C(=O)[C@@H](Cc3ccc(Cc4sncc4C)cc3)OC(=O)[C@H](CC(C)C)N(C)C(=O)[C@@H](C)OC(=O)[C@H](CC(C)C)N(C)C2=O)cc1 [Example 4-141, (3S,6R,9S,12R,15S,18R,21S,24R)-3,9,15,21-tetraisobutyl-4,6,10,16,18,22-hexamethyl-12,24-bis(4-((4-methylisothiazol-5-yl)methyl)benzyl)-1,7,13,19-tetraoxa-4,10,16,22-tetraazacyclotetracosan-2,5,8,11,14,17,20,23-octaone] | 1 to 3.3 |  |  | 0.003 |  |  |  |  |  |  | 1.8 | 1 | 3 |
